Laboratory results: US20080057010A1, “METHOD FOR SKIN CARE” (NULIV SCIENCE LTD., priority 2006, published 2008)

Legend:
[1] = tested on: collagen I; assay: Collagen I expression in human HaCaT cells (western blot); type: cell-based; settings: relative to 0 μM = 1.00
Description: The Spontaneously transformed human keratinocyte cell lines HaCaT cells were grown at 37° C. in a humidified incubator under 5% CO2 and 95% air in culture medium such as Dulbecco Modified Eagle Medium (DMEM) supplemented with 10% Fetal Bovine Serum (FBS), 100 IU/mL penicillin, 100 μg/mL of streptomycin, 2 mM sodium pyruvate and 1% Non-Essential Amino Acids (NEAA). The culture medium was replaced every other day. After confluence, the cells were subcultured following trypsinization. For subcultures cells were harvested after brief treatment with 0.1% trypsin/ethylenediaminetetraacetic acid (EDTA) solution and seeded at a dilution of 1:10. Cells between passages 12 and 45 were used for studies. The cells were seeded and incubated for 24 h before treated with the astragalosides for 24 h. Control cultures were maintained in medium supplemented with vehicle (dimethyl sulfoxide (DMSO) 0.1%). No growth and differentiation effects of DMSO were observed under these culture conditions.
(§1) The cells were treated with pure compounds such as astragaloside I (AS 1), astragaloside II (AS2), astragaloside III (AS3), astragaloside IV (AS4), astragaloside VI (AS6), isoastragaloside I (isoAS1), isoastragaloside II (isoAS2), and cycloastragenol 6-O-β-D-glucopyranose (AA) at concentrations of 0-10 μM. Alternatively, the cells were also treated with the crude extracts, such as butanol fraction and water insoluble fraction of Astragalus membranaceus at concentrations of 0, 1, 10, and 40 μg/mL. The cells were treated with the indicated compounds or the extracts for 24 h before harvested for analysis of collagen I and III expressed in the whole cell extract or secreted into the culture medium.
(§2) Western blot analysis was carried out on both of cultured medium and cell lysates. The cells were plated on 6-cm dishes at a density of 1×10^6 cells/dish for 24 h prior to treatment with indicated concentrations of astragalus triterpenoids as indicated for another 48 h. The conditioned culture mediums were then centrifuged, 2-fold concentrated and collected for assay of collagens and MMPs secreted into the culture medium. The cells were washed and lysed in 0.2 mL of lysis buffer (1% NP-40, 50 mM Tris-HCl, pH 7.4, 180 mM NaCl, 1 mM EDTA, 1 mM PMSF, 1 mM NaF, 10 mM Na3VO4) for 30 min at 4° C. After centrifuging at 17500 g for 15 min, the supernatants of cell lysate were also collected. Protein concentration of the samples were measured using the bicinchoninic acid (BCA) protein assay kit according to the manufacturer's protocol (Pierce, Rockford, Ill., USA). Equal amount of protein samples of concentrated conditioned medium (100 μg) or cell lysate supernatants (50 μg) were mixed with an appropriate volume of 4×SDS sampling buffer and separated by 8% SDS-PAGE gel. The protein bands separated in the SDS-PAGE gel were blotted onto a polyvinylidene fluoride (PVDF) membrane. The blotted PVDF membrane was washed twice and blocked in freshly prepared Tris-buffered saline (TBS) containing 0.1% Tween-20 and 7% skim milk (TBST) for 2 h at room temperature. The PVDF membrane was then incubated with either antibodies against collagen I and III or the housekeeping protein α-tubulin (Santa Cruz Biotechnology, Santa Cruz, Calif.) for 18 h at 4° C. Horseradish peroxidase-conjugated anti-goat antibody was used as secondary antibody. Signals were visualized by an enhanced chemiluminescence kit (Clonetech, Palo Alto, Calif., USA) followed by exposure to X-ray films.
Results shown represent the quantitated data from western blot analysis. […] The collagen I was also over-expressed in the human HaCaT cells treated with 40 μg/mL of astragaloside extract.

[2] = tested on: collagen I; assay: Collagen I expression and secretion in human HDF cells (western blot); type: cell-based; settings: relative to 0 = 1.00
Description: (§3) Primary human dermal fibroblasts cells (HDF) were purchased from Cascade Biologics (Portland, Oreg., USA) and cultured in medium 106 supplemented with 10% fetal bovine serum (FBS), 100 IU/mL penicillin, 100 μg/mL of streptomycin. The cells from passages 4 to 10 were used for this study. Culture medium was replaced every other day. After confluence, the cells were subcultured following trypsinization. For subcultures cells were harvested after brief treatment with 0.1% trypsin/EDTA solution and seeded at a dilution of 1:10. The cells were seeded at 1×10^5 cells in 6-well culture plate for 24 h before treated with astragalosides or crude extracts, such as butanol fraction and water insoluble fraction of Astragalus membranaceus for the indicated time periods. Control cultures were maintained in medium supplemented with vehicle (dimethyl sulfoxide, DMSO, 0.1%). No growth and differentiation effects of DMSO were observed under these culture conditions.
as §1, §2
The collagen expression in the human HDF cells was also determined. […] And Collage I was over-expressed in the cells treated with various doses (1, 10, 40 μg/mL) of the crude extracts, such as butanol fraction and water insoluble fraction of Astragalus membranaceus.

[3] = tested on: collagen III; assay: Collagen III expression and secretion in human HDF cells (western blot); type: cell-based; settings: relative to 0 = 1.00
Description: as §3, §1, §2

[4] = tested on: HaCaT cells; assay: Glucosamine uptake assay in HaCaT cells; type: cell-based, human; settings: 0.1 μM
Description: In glucosamine uptake test, HaCaT cells were seeded into 24-well plate at a density of 3×10^4 cells/well and cultured for 24 h. The cells were then treated in the absence (solvent control) or presence of various concentrations of astragalosides for another 48 h. The treated cells were then washed twice with PBS and incubated in glucose and serum free medium (GSFM). After 2 h, the cells were replaced with fresh GSFM containing 0.2 μCi of [^14C]-Glucosamine (American Radiolabelled Chemicals Inc, ARC, St. Louis, Mo., USA). At the designated time interval, the cells were washed twice with GSFM containing cold glucosamine and then lysed in 200 μL 2% SDS. Cell lysates were centrifuged at 15000 g for 15 min. Intracellular uptaken glucosamine was determined by transferring 10 μL of the cell lysate to filter-bottemed UniFilter plates (Perkim-Elmer) and counted. Protein concentration of the samples was measured using the BCA protein assay kit as described above. Glucosamine accumulated in the cells was calculated and normalized to protein concentration and uptake rate was expressed as counts per minute per microgram of cell protein (cpm/min/μg).

[5] = tested on: MMP-1; assay: Quantitative analysis of MMP-1 transcripts in HDF cells (qRT-PCR); type: cell-based, human; settings: 0.1 μM, MMP-1 mRNA relative to 0 = 1.00
Description: Relative levels of MMP-1 expression in HDF cells were determined by qRT-PCR. Preparation of total RNA and cDNA were carried out as described in previous sections. qRT-PCR was performed using the Applied Biosystem 7300 system and pre-developed Taqman Gene Expression Assays (Applied Biosystems, Foster City, Calif., USA). The reaction was performed as described in previous sections except that primer mix for human MMP-1 (assay ID HS00233958_m1, Applied Biosystems) and GAPDH (assay ID Hs99999905_m1, Applied Biosystems) were used.
Results shown in Tables 6A and 6B represent the quantitated data from zymography analysis of MMP-2 protein in HaCaT cells and qRT-PCR for MMP-1 in HDF cells. The concentrations used were 0, 0.01. 0.1, 1 μM (if not indicated otherwise) for pure compounds; and were 0, 1, 10, 40 μg/mL for crude extract (if not indicated otherwise). The cells were treated with the indicated compounds for 24 h before harvested for analysis of Pro-MMP-2 or activated MMP-2 in whole cell extract. Fifty micrograms of the cell extract samples were used for electrophoresis.

[6] = tested on: MMP-1; assay: UV-B-induced MMP-1 expression in human HDF cells (western blot, FIG. 1); type: cell-based; settings: 50 mJ/cm^2 UV-B, positive control (FIG. 1 lane 3)
Description: To characterize the effects of astragalosides on the expression level of MMPs in human cells, HDF or HaCaT cells were first treated with or without various concentrations of astragalosides for 24 h. The cells were washed with phosphate-buffered saline (PBS) and irradiated with 10-100 mJ/cm^2 of UV-B (312 nm) for HDF-1 and HaCaT cells, respectively, using the UV light irradiator (UVItec unlimited, Cambridge, England). The cells were then washed and incubated with serum free medium for 24 h before harvested for analysis. The effect of astragalosides on MMPs levels was analyzed by western blot and the activity of MMPs was analyzed by zymography. All trans retinoic acid (atRA) was used as a positive control to suppress the UV-B-induced MMPs activation and expression.
Human HDF cells were treated with the indicated concentrations of water insoluble fraction of Astragalus membranaceus for 24 h. The cells were then irradiated with 50 mJ/cm^2 of UV-B. After 24 h, the cells were harvested for western blot analysis. […] Thus, the water insoluble fraction of Astragalus membranaceus is a potential agent for the prevention and treatment of skin aging as a result of UV irradiation.

Structure (SMILES) | Collagen I in cell ([1]; 0.01 μM) | Collagen I in cell ([1]; 0.1 μM) | Collagen I in cell ([1]; 1 μM) | Collagen I in cell ([2]; 0.01 μM) | Collagen I in medium ([2]; 0.01 μM) | Collagen I in cell ([2]; 0.1 μM) | Collagen I in medium ([2]; 0.1 μM) | Collagen I in cell ([2]; 1 μM) | Collagen I in medium ([2]; 1 μM) | Collagen III in medium ([3]; 0.01 μM) | Collagen III in medium ([3]; 0.1 μM) | Collagen III in medium ([3]; 1 μM) | Uptake rate (glucosamine) ([4]; 48 h treatment) [CPM/μg protein] | Percentage (%) of control glucosamine uptake ([4]; relative to control) [%] | MMP-1 Q-PCR [5] | UV-mediated induction of MMP-1 expression [6]
CC(C)(O)C1CC[C@](C)(C2[C@@H](O)C[C@@]3(C)C4C[C@H](OC5OC(CO)C(O)C(O)C5O)C5C(C)(C)[C@@H](O)CCC56CC46CC[C@]23C)O1 (stereo partly drawn) [AA, cycloastragenol 6-O-β-D-glucopyranose] | 2.57 | 3.34 | 3.47 | 1.04 | 0.97 | 1.85 | 0.95 | 1.17 | 1.52 | 1.03 | 1.62 | 1.34 | 0.9445 ± 0.0823 | 114.59 | 0.76 | –
CC1=C(/C=C/C(C)=C/C=C/C(C)=C/C(=O)O)C(C)(C)CCC1 [atRA, All trans retinoic acid] | – | – | – | – | – | – | – | – | – | – | – | – | – | – | – | blocked
